Experimental data as given in patent publication US11992497B2 (priority 2021, dated 2024).

Key:
[1] = target: T1, rUGT2B7 (Homo sapiens, UniProt P16662); assay: Inhibition of CBG glucuronidation by Compound 1; type: biochemical; conditions: for CBG detected, Percent of control / CBG glucuronide formed, Percent of control: rUGT2B7; for CBG detected / CBG glucuronide formed: rUGT2B7, 5 min
T1 sequence (P16662 24-529): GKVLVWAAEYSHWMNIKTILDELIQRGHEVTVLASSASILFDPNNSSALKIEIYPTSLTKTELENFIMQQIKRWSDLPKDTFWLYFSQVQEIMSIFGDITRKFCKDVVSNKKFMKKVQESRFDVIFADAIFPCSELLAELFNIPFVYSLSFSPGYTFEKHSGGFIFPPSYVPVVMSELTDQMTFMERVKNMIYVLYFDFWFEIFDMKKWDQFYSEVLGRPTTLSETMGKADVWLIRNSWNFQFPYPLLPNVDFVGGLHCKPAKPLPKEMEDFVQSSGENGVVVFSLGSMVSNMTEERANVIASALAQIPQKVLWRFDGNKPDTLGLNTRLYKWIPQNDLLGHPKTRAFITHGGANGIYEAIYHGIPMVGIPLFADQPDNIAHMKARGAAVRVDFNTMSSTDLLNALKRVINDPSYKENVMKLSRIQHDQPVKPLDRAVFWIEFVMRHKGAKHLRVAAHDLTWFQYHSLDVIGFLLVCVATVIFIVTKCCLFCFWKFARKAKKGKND
Protocol: (§1) The purpose of this experiment was to determine if Compound 1 can inhibit the glucuronidation of CBG, as both are substrates for the two major isoforms responsible for CBG glucuronidation.
(§2) The ability of Compound 1 to inhibit the metabolism of CBG by UGT1A9 and UGT2B7 enzymes was investigated to ascertain the ICso values for direct inhibition. The incubation conditions (substrate concentration, incubation time and protein concentration) were determined in Part 2 of the protocol such that CBG metabolism remains near initial rate conditions (e.g., 20-30% substrate loss).
(§3) Preliminary experiments were conducted in Part I of the protocol, first to establish the HPLC/MS/MS bioanalytical methods for CBG and CBG glucuronide. […] The second set of preliminary experiments (Part 2), as mentioned, were conducted to optimize the incubation conditions as described above. Incubations (at 37 C) contained Tris-HCl buffer (100 mM, pH 7.7), MgCl2 (10 mM), EDTA (1 mM, pH 7.4) and UDP-glucuronic acid (UDPGA, 10 mM). CBG was added to each incubation in DMSO such that the final percent of DMSO was 1% v/v, or less. Reactions were terminated by the addition of an equal volume of stop reagent, acetonitrile containing an internal standard. The samples were centrifuged (e.g., 920 RCF for 10 minutes at 10° C.), and the supernatant fractions were analyzed by LC-MS/MS to determine the amount of CBG remaining and formation of one metabolite (CBG glucuronide).
(§4) To examine its ability to act as a direct inhibitor of the above listed enzymes, Compound 1 was be added to recombinant human UGT enzyme together with CBG. Reactions were initiated with UDPGA and were carried out in duplicate. For all assays, reactions were terminated by the addition of acetonitrile with or without 2% v/v formic acid, including the internal standard.
(§5) Authentic metabolite reference standards were used for quantitation of the probe substrate metabolites and as internal standards. Based on the information obtained in the Part 2 experiments, the following table summarizes the experiments performed, assessing the inhibitory effects of Compound 1 was conducted as follows:
(§6) The amounts of CBG present at the end of the incubation periods was determined. For inhibition to have occurred, the amounts of CBG present at the end of the incubation period needed to increase, and the amounts of glucuronide formed needed to decrease.

[2] = target: T2, rUGT1A9 (Homo sapiens, UniProt O60656); assay: Inhibition of CBG glucuronidation by Compound 1; type: biochemical; conditions: for CBG detected, Percent of control / CBG glucuronide formed, Percent of control: rUGT1A9; for CBG detected / CBG glucuronide formed: rUGT1A9, 4 min
T2 sequence (O60656 26-530): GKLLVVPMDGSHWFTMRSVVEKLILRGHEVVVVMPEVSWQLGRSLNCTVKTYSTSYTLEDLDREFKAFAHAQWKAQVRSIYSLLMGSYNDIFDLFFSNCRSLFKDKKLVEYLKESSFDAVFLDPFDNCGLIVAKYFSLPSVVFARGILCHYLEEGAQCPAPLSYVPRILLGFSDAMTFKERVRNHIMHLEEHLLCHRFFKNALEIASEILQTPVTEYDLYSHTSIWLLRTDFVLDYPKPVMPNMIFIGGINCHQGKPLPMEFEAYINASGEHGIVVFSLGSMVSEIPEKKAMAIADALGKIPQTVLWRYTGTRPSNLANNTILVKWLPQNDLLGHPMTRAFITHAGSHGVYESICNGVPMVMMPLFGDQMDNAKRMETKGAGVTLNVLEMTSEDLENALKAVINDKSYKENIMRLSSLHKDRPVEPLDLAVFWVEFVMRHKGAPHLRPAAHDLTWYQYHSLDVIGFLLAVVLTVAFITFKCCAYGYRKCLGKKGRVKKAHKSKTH
Protocol: as §1, §2, §3, §4, §5, §6

In the case of `CCCCCc1cc(O)c(C/C=C(\C)CCC=C(C)C)c(OC)c1` [Compound 1, (E)-2-(3,7-dimethylocta-2,6-dien-1-yl)-3-methoxy-5-pentylphenol], the “CBG detected, Percent of control” value ([1]; 10 μM CBG + 0.01 μM Compound 1) is reported as 103% of control, the “CBG glucuronide formed, Percent of control” value ([1]; 10 μM CBG + 0.01 μM Compound 1) is reported as 104% of control and the CBG detected ([1]; 10 μM CBG + 0.01 μM Compound 1) is reported as 1370 pmol. The CBG glucuronide formed ([1]; 10 μM CBG + 0.01 μM Compound 1) was 260000 area ratio, the “CBG detected, Percent of control” value ([1]; 10 μM CBG + 0.03 μM Compound 1) was 109% of control and the “CBG glucuronide formed, Percent of control” value ([1]; 10 μM CBG + 0.03 μM Compound 1) was 101% of control. The CBG detected ([1]; 10 μM CBG + 0.03 μM Compound 1) was 1460 pmol, the CBG glucuronide formed ([1]; 10 μM CBG + 0.03 μM Compound 1) was 252000 area ratio and the “CBG detected, Percent of control” value ([1]; 10 μM CBG + 0.1 μM Compound 1) was 106% of control. The “CBG glucuronide formed, Percent of control” value ([1]; 10 μM CBG + 0.1 μM Compound 1) was 103% of control, the CBG detected ([1]; 10 μM CBG + 0.1 μM Compound 1) was 1410 pmol and the CBG glucuronide formed ([1]; 10 μM CBG + 0.1 μM Compound 1) was 257000 area ratio. For the same compound, the “CBG detected, Percent of control” value ([1]; 10 μM CBG + 0.3 μM Compound 1) was 109% of control, the “CBG glucuronide formed, Percent of control” value ([1]; 10 μM CBG + 0.3 μM Compound 1) was 105% of control and the CBG detected ([1]; 10 μM CBG + 0.3 μM Compound 1) was 1450 pmol. The CBG glucuronide formed ([1]; 10 μM CBG + 0.3 μM Compound 1) was 262000 area ratio, the “CBG detected, Percent of control” value ([1]; 10 μM CBG + 1 μM Compound 1) was 109% of control and the “CBG glucuronide formed, Percent of control” value ([1]; 10 μM CBG + 1 μM Compound 1) was 102% of control. The CBG detected ([1]; 10 μM CBG + 1 μM Compound 1) was 1460 pmol, the CBG glucuronide formed ([1]; 10 μM CBG + 1 μM Compound 1) was 253000 area ratio and the “CBG detected, Percent of control” value ([1]; 10 μM CBG + 3 μM Compound 1) was 108% of control. For the same compound, the “CBG glucuronide formed, Percent of control” value ([1]; 10 μM CBG + 3 μM Compound 1) was 101% of control, the CBG detected ([1]; 10 μM CBG + 3 μM Compound 1) was 1440 pmol and the CBG glucuronide formed ([1]; 10 μM CBG + 3 μM Compound 1) was 252000 area ratio. The “CBG detected, Percent of control” value ([1]; 10 μM CBG + 10 μM Compound 1) was 111% of control, the “CBG glucuronide formed, Percent of control” value ([1]; 10 μM CBG + 10 μM Compound 1) was 96.0% of control and the CBG detected ([1]; 10 μM CBG + 10 μM Compound 1) was 1470 pmol. For the same compound, the CBG glucuronide formed ([1]; 10 μM CBG + 10 μM Compound 1) was 239000 area ratio, the “inhibition of the conversion of CBG to a glucuronide (in words)” value ([1]; UGT2B7, 0.01-10 μM Compound 1) was “not an effective inhibitor” and the “CBG detected, Percent of control” value ([2]; 10 μM CBG + 0.01 μM Compound 1) was 109% of control. The “CBG glucuronide formed, Percent of control” value ([2]; 10 μM CBG + 0.01 μM Compound 1) was 94.4% of control, the CBG detected ([2]; 10 μM CBG + 0.01 μM Compound 1) was 1250 pmol and the CBG glucuronide formed ([2]; 10 μM CBG + 0.01 μM Compound 1) was 350000 area ratio. For the same compound, the “CBG detected, Percent of control” value ([2]; 10 μM CBG + 0.03 μM Compound 1) was 110% of control, the “CBG glucuronide formed, Percent of control” value ([2]; 10 μM CBG + 0.03 μM Compound 1) was 97.1% of control and the CBG detected ([2]; 10 μM CBG + 0.03 μM Compound 1) was 1250 pmol. For the same compound, the CBG glucuronide formed ([2]; 10 μM CBG + 0.03 μM Compound 1) was 360000 area ratio, the “CBG detected, Percent of control” value ([2]; 10 μM CBG + 0.1 μM Compound 1) was 112% of control and the “CBG glucuronide formed, Percent of control” value ([2]; 10 μM CBG + 0.1 μM Compound 1) was 92.0% of control. The CBG detected ([2]; 10 μM CBG + 0.1 μM Compound 1) was 1280 pmol, the CBG glucuronide formed ([2]; 10 μM CBG + 0.1 μM Compound 1) was 341000 area ratio and the “CBG detected, Percent of control” value ([2]; 10 μM CBG + 0.3 μM Compound 1) was 114% of control. For the same compound, the “CBG glucuronide formed, Percent of control” value ([2]; 10 μM CBG + 0.3 μM Compound 1) was 94.4% of control, the CBG detected ([2]; 10 μM CBG + 0.3 μM Compound 1) was 1300 pmol and the CBG glucuronide formed ([2]; 10 μM CBG + 0.3 μM Compound 1) was 350000 area ratio. The “CBG detected, Percent of control” value ([2]; 10 μM CBG + 1 μM Compound 1) was 106% of control, the “CBG glucuronide formed, Percent of control” value ([2]; 10 μM CBG + 1 μM Compound 1) was 92.6% of control and the CBG detected ([2]; 10 μM CBG + 1 μM Compound 1) was 1210 pmol. The CBG glucuronide formed ([2]; 10 μM CBG + 1 μM Compound 1) was 343000 area ratio, the “CBG detected, Percent of control” value ([2]; 10 μM CBG + 3 μM Compound 1) was 105% of control and the “CBG glucuronide formed, Percent of control” value ([2]; 10 μM CBG + 3 μM Compound 1) was 93.6% of control. The CBG detected ([2]; 10 μM CBG + 3 μM Compound 1) was 1200 pmol, the CBG glucuronide formed ([2]; 10 μM CBG + 3 μM Compound 1) was 347000 area ratio and the “CBG detected, Percent of control” value ([2]; 10 μM CBG + 10 μM Compound 1) was 99.8% of control. For the same compound, the “CBG glucuronide formed, Percent of control” value ([2]; 10 μM CBG + 10 μM Compound 1) was 92.8% of control, the CBG detected ([2]; 10 μM CBG + 10 μM Compound 1) was 1140 pmol and the CBG glucuronide formed ([2]; 10 μM CBG + 10 μM Compound 1) was 344000 area ratio. The “inhibition of the conversion of CBG to a glucuronide (in words)” value ([2]; UGT1A9, 0.01-10 μM Compound 1) was “not an effective inhibitor”.
